No end group written: not given here.
Legend:
[1] = molecular target: c-RAF(h) (Homo sapiens, UniProt P04049); test: Kinase Profiling Assay; format: biochemical; conditions: peptide 100 μM
In short: (§1)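 Measured twice per kinase, activity in presence of MK2 inhibitory peptide was calculated against a 100% activity control after radiometric phosphorylation of a cationic substrate, anionic filter capture and scintillation counting; one of 266 human kinases profiled for specificity.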

[2] = molecular target: CK1γ1(h) (Homo sapiens, UniProt Q9HCP0); test: Kinase Profiling Assay; format: biochemical; conditions: peptide 100 μM
CK1γ1(h), sequence (Q9HCP0 whole entry): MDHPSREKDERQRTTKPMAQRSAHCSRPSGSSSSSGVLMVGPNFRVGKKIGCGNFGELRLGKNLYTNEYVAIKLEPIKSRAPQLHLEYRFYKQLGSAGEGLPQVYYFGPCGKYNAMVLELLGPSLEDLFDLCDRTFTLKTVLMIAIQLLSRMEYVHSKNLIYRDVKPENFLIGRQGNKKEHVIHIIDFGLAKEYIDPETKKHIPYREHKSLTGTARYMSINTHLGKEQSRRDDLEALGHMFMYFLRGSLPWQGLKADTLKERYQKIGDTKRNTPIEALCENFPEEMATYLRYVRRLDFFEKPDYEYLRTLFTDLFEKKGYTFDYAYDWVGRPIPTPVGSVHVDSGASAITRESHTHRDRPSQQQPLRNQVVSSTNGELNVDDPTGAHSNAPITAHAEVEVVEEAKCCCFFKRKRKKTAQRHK
In short: as §1

[3] = molecular target: CLK2(h) (Homo sapiens, UniProt P49760); test: Kinase Profiling Assay; format: biochemical; conditions: peptide 100 μM
CLK2(h), sequence (P49760 whole entry): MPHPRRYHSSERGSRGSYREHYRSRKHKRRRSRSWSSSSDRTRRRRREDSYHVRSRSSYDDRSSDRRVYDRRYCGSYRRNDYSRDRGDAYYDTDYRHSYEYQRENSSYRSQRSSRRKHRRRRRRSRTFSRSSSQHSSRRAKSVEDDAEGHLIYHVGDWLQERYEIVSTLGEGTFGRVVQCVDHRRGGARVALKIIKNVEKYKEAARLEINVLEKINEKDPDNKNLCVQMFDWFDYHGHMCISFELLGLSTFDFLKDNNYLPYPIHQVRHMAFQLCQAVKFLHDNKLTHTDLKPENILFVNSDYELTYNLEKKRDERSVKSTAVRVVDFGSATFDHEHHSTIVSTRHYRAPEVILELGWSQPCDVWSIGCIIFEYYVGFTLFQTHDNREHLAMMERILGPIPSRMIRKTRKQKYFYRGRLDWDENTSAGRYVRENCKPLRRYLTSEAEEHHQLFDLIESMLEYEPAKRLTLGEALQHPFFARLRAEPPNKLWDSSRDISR
In short: as §1

[4] = molecular target: Plk1(h) (Homo sapiens, UniProt P53350); test: Kinase Profiling Assay; format: biochemical; conditions: peptide 100 μM
Plk1(h), sequence (P53350 whole entry): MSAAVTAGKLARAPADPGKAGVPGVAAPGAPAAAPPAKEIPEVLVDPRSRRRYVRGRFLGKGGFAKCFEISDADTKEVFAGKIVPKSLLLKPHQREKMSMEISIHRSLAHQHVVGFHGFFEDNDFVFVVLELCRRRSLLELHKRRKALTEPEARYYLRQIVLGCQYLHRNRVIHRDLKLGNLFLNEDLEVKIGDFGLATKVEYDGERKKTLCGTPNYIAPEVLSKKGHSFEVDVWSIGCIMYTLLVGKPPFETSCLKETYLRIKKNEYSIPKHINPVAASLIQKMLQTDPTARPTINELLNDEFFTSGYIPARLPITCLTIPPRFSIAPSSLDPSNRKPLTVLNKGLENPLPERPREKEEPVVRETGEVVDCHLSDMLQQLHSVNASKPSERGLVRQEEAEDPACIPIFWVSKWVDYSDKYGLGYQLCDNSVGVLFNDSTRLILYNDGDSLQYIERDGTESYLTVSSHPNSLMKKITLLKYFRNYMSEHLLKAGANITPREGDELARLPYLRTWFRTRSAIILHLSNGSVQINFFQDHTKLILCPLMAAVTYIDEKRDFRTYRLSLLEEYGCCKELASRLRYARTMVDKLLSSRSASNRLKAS
In short: as §1

[5] = molecular target: FGFR2(N549H)(h) (Homo sapiens, UniProt P21802, N549H); test: Kinase Profiling Assay; format: biochemical; conditions: peptide 100 μM
FGFR2(N549H)(h), sequence (P21802 22-821 N549H): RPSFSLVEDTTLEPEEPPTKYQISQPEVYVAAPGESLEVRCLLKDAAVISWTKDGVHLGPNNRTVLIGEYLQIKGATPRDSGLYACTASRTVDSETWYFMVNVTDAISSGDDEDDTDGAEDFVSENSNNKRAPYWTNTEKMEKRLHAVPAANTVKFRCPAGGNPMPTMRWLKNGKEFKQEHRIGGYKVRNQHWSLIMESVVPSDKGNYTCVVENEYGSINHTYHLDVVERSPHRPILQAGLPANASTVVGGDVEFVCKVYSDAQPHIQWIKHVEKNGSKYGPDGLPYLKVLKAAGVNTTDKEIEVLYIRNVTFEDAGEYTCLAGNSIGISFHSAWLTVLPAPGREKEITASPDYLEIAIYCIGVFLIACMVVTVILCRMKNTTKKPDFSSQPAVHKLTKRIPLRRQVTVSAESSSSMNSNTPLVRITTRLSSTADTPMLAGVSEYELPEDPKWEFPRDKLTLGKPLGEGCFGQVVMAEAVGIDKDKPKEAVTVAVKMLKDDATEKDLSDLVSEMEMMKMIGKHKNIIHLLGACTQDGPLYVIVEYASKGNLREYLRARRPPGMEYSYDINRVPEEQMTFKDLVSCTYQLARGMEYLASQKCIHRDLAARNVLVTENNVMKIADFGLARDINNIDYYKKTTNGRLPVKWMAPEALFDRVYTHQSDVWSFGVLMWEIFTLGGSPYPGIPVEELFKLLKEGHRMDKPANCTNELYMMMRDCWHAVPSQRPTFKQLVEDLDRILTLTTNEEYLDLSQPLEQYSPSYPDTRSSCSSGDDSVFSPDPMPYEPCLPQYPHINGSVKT
In short: as §1

[6] = molecular target: T1, human recombinant MK2 (h) (Homo sapiens, UniProt P49137); test: Radiometric IC50 Determination; format: biochemical; conditions: 10-point curve; ATP within 15 μM of apparent Km
T1 construct: purchased Millipore (IC50 Profiler Express service)
T1 sequence (P49137 whole entry): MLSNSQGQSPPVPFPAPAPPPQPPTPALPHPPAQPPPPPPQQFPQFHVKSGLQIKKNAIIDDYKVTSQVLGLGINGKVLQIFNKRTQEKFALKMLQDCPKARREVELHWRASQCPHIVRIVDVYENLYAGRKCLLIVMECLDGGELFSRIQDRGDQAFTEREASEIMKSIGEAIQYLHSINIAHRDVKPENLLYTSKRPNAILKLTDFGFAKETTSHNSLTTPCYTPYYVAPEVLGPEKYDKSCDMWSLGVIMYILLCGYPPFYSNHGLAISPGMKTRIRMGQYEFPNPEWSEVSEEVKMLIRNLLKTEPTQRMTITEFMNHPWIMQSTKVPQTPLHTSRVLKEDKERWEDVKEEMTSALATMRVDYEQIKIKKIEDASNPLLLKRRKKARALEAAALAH
Procedure: The IC50 value was estimated from a 10-point curve of one-half log dilutions. Peptide was supplied in dimethyl sulfoxide (DMSO). Specifically, human recombinant MK2 (h) (5-10 mU) was incubated with 50 mM sodium 3-glycerophosphate (pH=7.5), 0.1 mM EGTA, 30 μM of substrate peptide ([…]; SEQ ID NO: 21), 10 mM magnesium acetate, and 90 uM γ-^33P-ATP (final volume of 25 μL) for 40 minutes at room temperature. Then, the reaction was stopped with 3% phosphoric acid. 10 μL of this mixture was spotted onto a P30 filtermat and washed three times for five minutes with 75 mM phosphoric acid and once with methanol. Finally, the membrane was dried and a scintillation counter was used.
Specifically, in these assays, a positively charged substrate is phosphorylated with a radiolabeled phosphate group from an ATP if the kinase is not inhibited by an inhibitor peptide. The positively charged substrate then is attracted to a negatively charged filter membrane, quantified with a scintillation counter, and compared to a 100% activity control.

[7] = tested on: splenic T cells; test: Autologous mixed lymphocyte reaction (MLR) of splenic T cells from treated bleomycin mice; format: in vivo, mouse
From the text: Recent studies highlighted a key role for T lymphocytes in bleomycin-induced fibrosis (Wilson, M. et al., The Journal of Experimental Medicine, 207(3): 535-552, 2010). […] Specifically, the ability of C57BL/6 purified antigen-presenting cells to induce proliferation in C57BL/6 T lymphocytes was examined in the assay.
C57-BL/6 mice were subjected to bleomycin injury at day 0. […] Splenic T cells were isolated and cultured alone or in the presence of autologous antigen presenting cells (APCs from C57-BL/6 mice) or stimulated with antibodies against CD3 (α-CD3) for 48 h. The cells then were radiolabeled with […] thymidine for 16 h and assessed for proliferation rates.
The viability of the T cells also was confirmed by stimulating the cells with antibodies against α-CD3, a polyclonal T cell activator. α-CD3 induced robust proliferation of the cells irrespective of the treatment group.

[8] = tested on: phospho-Thr^334-MAPKAPK2 (activated form of MK2); test: Anti-phospho-Thr334-MAPKAPK2 staining of lung sections, bleomycin treatment model; format: in vivo, mouse; conditions: day 14-28
From the text: C57-BL/6 mice were subjected to bleomycin injury at day 0. […] Original magnifications: 20×.
Briefly, C57-BL/6 mice were subjected to bleomycin injury at day 0. […] Formalin-fixed lung tissue sections were immunostained against phospho-Thr^334 MK2. Control staining was with biotinylated secondary IgG antibody. Streptavidin-conjugated horseradish peroxidase was used with 3,3′-diaminobenzidene as substrate and nuclei were counterstained with hematoxylin.

[9] = tested on: TNF-α; test: Circulating inflammatory cytokines, bleomycin treatment model; format: in vivo, mouse; conditions: 24 hours after final administration
[10] = tested on: IL-6; test: as above; format: in vivo, mouse; conditions: 24 hours after final administration
[11] = tested on: primary lung fibroblasts from patients with IPF; test: Matrigel invasion assay, human IPF fibroblasts; format: cell-based; conditions: MK2i treatment
Procedure: (§2) Fibroblasts are critical effector cells in mediating tissue remodeling. […] We have developed a novel model of progressive lung fibrosis based on a cancer metastasis model. […] We hypothesized that fibrotic fibroblasts acquire an invasive phenotype that is essential for progressive fibrogenesis and that CD44 has a critical role in regulating the process. We utilized an assay system in which fibroblasts are evaluated for their ability to spontaneously invade Matrigel, a composite matrix with basement membrane constituents. This assay has been used to analyze the metastatic potential of cancer cells (40).
We have hypothesized that the essential feature of IPF is the development of an invasive fibroblast phenotype that has developed a gene program that facilitates matrix invasion. To determine if the data obtained from the ASMA-HAS2 transgenic mouse model of severe, progressive and destructive fibrosis is relevant to human lung fibrosis, we isolated primary lung fibroblasts from patients with IPF and analyzed their invasive capacity. We found a striking increase in the invasive capacity of IPF fibroblasts compared to fibroblasts isolated from normal lung tissue (FIG. 34).

[12] = tested on: fibroblasts from bleomycin treated mouse lung; test: Matrigel invasion assay, mouse lung fibroblasts; format: cell-based; conditions: fibroblasts from WT or ASMA-HAS2 mice; 8 μm
Procedure: as §2
To determine the role of CD44 in fibroblast invasion we examined the invasive capacity of fibroblasts isolated from CD44 null mice after bleomycin treatment and found impaired invasive capacity (not shown). Similar results were found from fibroblasts isolated from ASMA-HAS2+/CD44−/− mice (FIG. 37 A). Furthermore, treating fibroblasts isolated from bleomycin-challenged wild type C57B1/6J mice with anti-CD44 Abs blunted fibroblast invasion (FIG. 37 B).

[13] = tested on: fibroblasts from human idiopathic pulmonary fibrosis (IPF) lung; test: HA production of fibroblasts; format: cell-based
[14] = tested on: fibroblasts from bleomycin treated murine hyaluronan synthase 2 (mHAS2) lung; test: HA production of fibroblasts; format: cell-based, mouse
[15] = tested on: bleomycin treated wild type (WT) mouse lung; test: HA content in bleomycin treated mouse lung; conditions: in vivo
[16] = tested on: bleomycin-induced lung fibrosis in C57BL/6 mice; conditions: 37.5 μg/kg daily for 14 d from d14, inhaled or intra-peritoneal; cited from earlier work
[17] = molecular target: CK1γ2(h) (Homo sapiens, UniProt P78368); test: Kinase Profiling Assay; format: biochemical; conditions: peptide 100 μM
CK1γ2(h), sequence (P78368 whole entry): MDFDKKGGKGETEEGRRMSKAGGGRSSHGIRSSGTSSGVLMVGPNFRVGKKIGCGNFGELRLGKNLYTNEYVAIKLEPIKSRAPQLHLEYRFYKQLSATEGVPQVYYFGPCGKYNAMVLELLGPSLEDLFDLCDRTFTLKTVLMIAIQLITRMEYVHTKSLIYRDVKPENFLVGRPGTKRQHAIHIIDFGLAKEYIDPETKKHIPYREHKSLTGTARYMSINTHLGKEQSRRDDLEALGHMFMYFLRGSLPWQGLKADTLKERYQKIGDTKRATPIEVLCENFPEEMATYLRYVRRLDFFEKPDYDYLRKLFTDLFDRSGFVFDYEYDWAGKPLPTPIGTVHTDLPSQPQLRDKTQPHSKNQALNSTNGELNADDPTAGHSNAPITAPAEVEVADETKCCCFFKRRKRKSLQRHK
In short: as §1

[18] = molecular target: PAK6(h) (Homo sapiens, UniProt Q9NQU5); test: Kinase Profiling Assay; format: biochemical; conditions: peptide 100 μM
PAK6(h), sequence (Q9NQU5 whole entry): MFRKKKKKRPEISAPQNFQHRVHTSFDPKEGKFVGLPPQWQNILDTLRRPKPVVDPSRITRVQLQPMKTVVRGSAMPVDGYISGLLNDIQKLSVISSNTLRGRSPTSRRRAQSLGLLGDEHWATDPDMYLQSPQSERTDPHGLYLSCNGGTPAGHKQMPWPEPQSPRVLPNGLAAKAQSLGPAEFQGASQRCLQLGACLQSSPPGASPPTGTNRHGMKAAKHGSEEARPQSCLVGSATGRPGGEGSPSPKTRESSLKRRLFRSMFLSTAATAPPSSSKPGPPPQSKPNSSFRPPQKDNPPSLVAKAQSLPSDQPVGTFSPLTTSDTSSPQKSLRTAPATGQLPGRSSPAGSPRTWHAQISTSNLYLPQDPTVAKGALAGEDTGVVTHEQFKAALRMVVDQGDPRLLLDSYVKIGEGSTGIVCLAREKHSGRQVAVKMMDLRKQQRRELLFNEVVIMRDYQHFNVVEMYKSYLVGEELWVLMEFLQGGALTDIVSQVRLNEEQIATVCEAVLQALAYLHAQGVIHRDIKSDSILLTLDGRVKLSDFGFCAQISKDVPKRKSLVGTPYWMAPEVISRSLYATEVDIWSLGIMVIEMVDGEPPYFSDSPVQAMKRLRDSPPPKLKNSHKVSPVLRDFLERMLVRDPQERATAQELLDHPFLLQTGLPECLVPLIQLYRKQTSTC
In short: as §1

HRRIKAWLKKIKALARQLGVAA (Mammal) [MMI-0500]
% activity [1]: 19%

YARAAARQARAKALNRQLGVA (Mammal) [MMI-0200]
% activity [2]: 98%
% activity [3]: 97%
% activity [4]: 128%

YARAAARQARAKALARQLGVAA [MMI-0100]
% activity [5]: 95%
IC50 [6]: 22 µM
toxicity (splenic T cell response to α-CD3) ([7]; 50 μg/kg/day): no toxicity
systemic distribution ([7]; nebulized delivery, inferred from lack of splenic T cell response): little systemic distribution
phospho-Thr^334-MAPKAPK2 staining ([8]; intraperitoneal 50 μg/kg daily): decreased
phospho-Thr^334-MAPKAPK2 staining ([8]; nebulized 50 μg/kg daily): decreased
plasma level of TNF-α ([9]; intraperitoneal): significantly reduced
plasma level of TNF-α ([9]; nebulized): significantly reduced
plasma level of IL-6 ([10]; intraperitoneal): significantly reduced
plasma level of IL-6 ([10]; nebulized): significantly reduced
invasive capacity of IPF fibroblasts [11]: able to inhibit
fibroblast invasion [12]: significantly reduced
HA production [13]: reduced
hyaluronan (HA) production [14]: reduced
hyaluronan (HA) content in lung [15]: reduced
progression of fibrosis (collagen deposition, myofibroblast differentiation, activated MK2 expression) [16]: inhibited

FAKLAARLYRKALARQLGVAA [MMI-0300]
% activity [17]: 123%

KAFAKLAARLYRKALARQLGVAA [MMI-0400]
% activity [18]: 100%

Source: patent publication US20150258192A1, “COMPOSITIONS AND METHODS FOR PREVENTING OR TREATING CHRONIC LUNG ALLOGRAFT DYSFUNCTION (CLAD) AND IDIOPATHIC PULMONARY FIBROSIS (IPF)” (priority 2014, published 2015)
